Measured values as given in US9107852B2, “Uses of agonists of delta opioid receptor in cosmetic and dermocosmetic field” (Induchem Holding AG, priority 2012, dated 2015).
Ends that are not written are not given here.

Tested on: reconstructed human epidermis (RHE)
Assay: Gene expression (RT-qPCR array) in inflammatory reconstructed human epidermis
Type: cell-based
Conditions: with cytokines and peptide 0.3 PPM; versus non stimulated RHE
Procedure: Transcriptional effects of a peptide (YPLDLF, SEQ ID No 1) on gene expression were researched on a reconstructed human epidermis (RHE) model under inflammatory conditions. The inflammation of the RHE was induced using a mix of cytokines (IL-17+OSM+TNF-α). The effects on gene expression were evaluated using RT-qPCR technology. Extracted mRNA was analyzed on a customized PCR array designed by the study sponsor and containing 64 target genes (including 2 housekeeping genes) selected for their role in keratinocyte differentiation, or their involvement in cell junctions and lipid synthesis, or their relation to opioid receptor delta (DOR).
Reconstructed human epidermis (RHE) of 11 days old was prepared according to a derived method described by Poumay et al. (2004). These RHE were cultivated at 37° C. and 5% of CO2 in a specific maintenance medium.
The RHE were cultured in assay medium containing or not (controls) the test compounds or the reference […] inhibitor I at 10 μM) and pre-incubated for 24 hours. Epidermises were then stimulated or not (non-stimulated control) with a cytokine mix (IL-17+OSM+TNF-α) at 3 ng/ml and the epidermises were incubated for 24 hours. All experimental conditions were performed in n=2.
At the end of incubation, the supernatants were collected and the RHE were washed in phosphate buffered saline solution (PBS) and immediately dry-frozen at −80° C.
The expression of markers was analyzed using RT-qPCR method on mRNA extracted from RHE for each treatment (before RNA extraction the replicates were pooled).
Analysis of gene expression was performed in n=2 using a customized PCR array dedicated to research and adapted to ‘screening’ format.
Total RNA was extracted from each sample using TriPure Isolation Reagent® according to the supplier's instructions. The amount and quality of RNA were evaluated using a lab-on-a-chip Bioanalyzer (Agilent technologies). The RNA quality controls are presented in appendix. Potential contaminant traces of genomic DNA were removed using the DNAfree system (Ambion). The reverse-transcription of mRNA was conducted in presence of oligo(dT) and Superscript II reverse-transcriptase. Quantification of cDNA was performed using Nanovue (GE Healthcare) and adjustment of cDNA at 10 ng/μl.
The PCRs (Polymerase Chain Reactions) were performed using the <<LightCycler®>> system (Roche Molecular System Inc.) according to supplier's instructions. This system allows rapid and powerful PCRs, after determining analysis conditions of the test primers.
The reaction mix (10 μl final) was added as follows: • 2.5 μl of cDNA at 10 ng/μl, • primers forward and reverse, • reagent mix containing taq DNA polymerase, SYBR Green I and MgCl2. Data Management of Quantitative PCR
The incorporation of fluorescence in amplified DNA was continuously measured during the PCR cycles. […] The value selected for RE calculations is the “output point” (Ct) of the fluorescence curve. For a considered marker, the highest is the cycle number; the lowest is the mRNA quantity. The RE value was expressed in arbitrary units (AU) according to the formula: (½^number of cycles)×10^6.

YPLDLF [YPLDLF]
Relative expression of ACSS2: 113 % Control (Mean HK) | Relative expression of ADRB2: 259 % Control (Mean HK) | Relative expression of BIRC5: 88 % Control (Mean HK) | Relative expression of CALML5 (Calmodulin-like 5): 72 % Control (Mean HK) | Relative expression of CASP3: 104 % Control (Mean HK) | Relative expression of CDH1 (E-cadherin): 126 % Control (Mean HK) | Relative expression of CDSN (Corneodesmosin): 161 % Control (Mean HK) | Relative expression of CLDN1 (Claudin 1): 128 % Control (Mean HK) | Relative expression of CLDN2 (Claudin 2): 121 % Control (Mean HK) | Relative expression of CREB1: 109 % Control (Mean HK) | Relative expression of CRNN (Cornulin): 71 % Control (Mean HK) | Relative expression of CTNNA1: 117 % Control (Mean HK) | Relative expression of CTNNB1: 134 % Control (Mean HK) | Relative expression of DSG1 (Desmoglein 1): 98 % Control (Mean HK) | Relative expression of DSP (Desmoplakin): 107 % Control (Mean HK) | Relative expression of DST (Dystonin): 93 % Control (Mean HK) | Relative expression of EGFR: 141 % Control (Mean HK) | Relative expression of EPPK1 (Epiplakin 1): 82 % Control (Mean HK) | Relative expression of EVPL (Envoplakin): 132 % Control (Mean HK) | Relative expression of F11R: 115 % Control (Mean HK) | Relative expression of FLG (Filaggrin): 117 % Control (Mean HK) | Relative expression of GAPDH: 116 % Control (Mean HK) | Relative expression of GBA: 110 % Control (Mean HK) | Relative expression of GJA1: 111 % Control (Mean HK) | Relative expression of GJA5: 90 % Control (Mean HK) | Relative expression of GJB2: 131 % Control (Mean HK) | Relative expression of GJB3: 111 % Control (Mean HK) | Relative expression of GJB4: 77 % Control (Mean HK) | Relative expression of GJB5: 122 % Control (Mean HK) | Relative expression of GJB6: 203 % Control (Mean HK) | Relative expression of GJC1: 126 % Control (Mean HK) | Relative expression of GJD3: 487 % Control (Mean HK) | Relative expression of GNAS: 130 % Control (Mean HK) | Relative expression of ITGA2: 108 % Control (Mean HK) | Relative expression of ITGAV: 103 % Control (Mean HK) | Relative expression of IVL (Involucrin): 119 % Control (Mean HK) | Relative expression of KRT1 (Keratin 1): 140 % Control (Mean HK) | Relative expression of KRT10 (Keratin 10): 145 % Control (Mean HK) | Relative expression of KRT19 (Keratin 19): 134 % Control (Mean HK) | Relative expression of LOR (Loricrin): 121 % Control (Mean HK) | Relative expression of MAPK1: 108 % Control (Mean HK) | Relative expression of MAPK14: 109 % Control (Mean HK) | Relative expression of OCLN (Occludin): 131 % Control (Mean HK) | Relative expression of ODC1: 110 % Control (Mean HK) | Relative expression of OPRD1 (Opioid receptor, delta 1): 101 % Control (Mean HK) | Relative expression of PADI1: 105 % Control (Mean HK) | Relative expression of PANX1 (Pannexin 1): 133 % Control (Mean HK) | Relative expression of PTGS2: 119 % Control (Mean HK) | Relative expression of PVRL1: 131 % Control (Mean HK) | Relative expression of RPS28 (Ribosomal protein S28): 91 % Control (Mean HK) | Relative expression of SFN (Stratifin): 143 % Control (Mean HK) | Relative expression of SLC1A3: 100 % Control (Mean HK) | Relative expression of SMPD1: 87 % Control (Mean HK) | Relative expression of SPRR1A: 142 % Control (Mean HK) | Relative expression of SPRR1B: 127 % Control (Mean HK) | Relative expression of SPRR2A: 111 % Control (Mean HK) | Relative expression of SPTLC1: 120 % Control (Mean HK) | Relative expression of STAT3: 120 % Control (Mean HK) | Relative expression of SULT2B1: 173 % Control (Mean HK) | Relative expression of TGM1 (Transglutaminase 1): 108 % Control (Mean HK) | Relative expression of TJAP1: 81 % Control (Mean HK) | Relative expression of TJP1: 129 % Control (Mean HK) | Relative expression of UGCG: 117 % Control (Mean HK)
